Like-named read-outs stand apart in the source and are kept apart here.
Legend:
[1] = test system: EJ cells; test: Intracellular GSH content detection; assay type: cell-based
Experimental: Initially, EJ cells (5 × 10^5) were cultured in 6-well plate with a CO2 incubator overnight at 37 °C. […] Next, EJ cells were collected and washed with PBS for 3 times. Afterwards, the cell lysates were collected by centrifugation at 8000 g for 10 min at 4 °C after lysed by freeze-thaw treatment. Finally, the GSH contents were measured with a GSH Assay Kit based on the manufacturer’s instructions.

[2] = Hydrolysis of the peptide-porphyrin conjugates at pH 7.4 and 6.5 (dialysis, HPLC); assay type: physicochemical; conditions: for Hydrolysis of SA (%): mean
Experimental: In vitro hydrolysis analysis of the peptide-porphyrin conjugates was studied in pH values of 7.4 and 6.5 solutions. 20 mg of peptide-porphyrin conjugate was dissolved in 2 mL pH 7.4 buffer solution, which was then transferred into a dialysis bag (MWCO: 1000 Da) and immersed in 25 mL of different pH buffer solutions at 37 °C with continuous shaking respectively. At fixed time intervals (20 min, 40 min, 1 h, 2 h and 4 h), […] chromatography (HPLC, WATERS Alliance HPLC e2489), and an equal volume of fresh buffer solution was replaced to the system. In order to determine the CAA concentration according to the peak area of the CAA, a standard curve of the CAA was plotted, with the peak area as a function of the concentration. […]

[3] = test system: EJ cells; test: Intracellular LPO content (MDA kit); assay type: cell-based
Experimental: Initially, EJ cells (5 × 10^5) were cultured in 6-well plate with a CO2 incubator overnight at 37 °C. […] Next, EJ cells were collected and washed with PBS for 3 times. Afterwards, the cell lysates were collected by centrifugation at 8000 g for 10 min at 4 °C after lysed by freeze-thaw treatment. Finally, the LPO contents were measured by thiobarbituric acid (TBA) reaction with a Malondialdehyde (MDA) Assay Kit based on the manufacturer’s instructions.

[4] = test system: HUVEC cells; assay type: cell-based; conditions: for Cell viability of HUVEC: HUVEC cells, pH=7.4
Experimental: Supplementary Fig. 27. Viability of HUVEC cells after treated with Gi -F (pH=7.4) and Gi-F-CAA (pH=7.4) at different
concentrations for 48 h (n=3 experimental repeats). Experiment was independently repeated three times with
(1 picture or pasted object on this page, not shown here)

[5] = test system: GPX4 protein; test: Microscale Thermophoresis (MST) ligand binding; conditions: for Fnorm (‰), MST original data: labelled GPX4
Experimental: Initially, GPX4 was labeled using Protein Labeling Kit RED-NHS according to the manufacturer’s instructions to investigate the binding affinity of Gi-F-CAA, Gi-F and NGi-F-CAA with GPX4 protein. Afterward, the labelled GPX4 protein was incubated with series of Gi-F-CAA, Gi-F and NGi-F-CAA concentration gradients. Finally, the prepared samples were loaded into silica capillaries and measured with Monolish NT.115. Apparent Kd represented the affinity of assemblies rather than a single molecule. Bovine serum albumin (BSA) was used as control for calculating the apparent binding affinity between Gi-F (nanoparticle) to GPX4 protein. Briefly, as the diameter of nanoparticle is proportional to the molecular weight, according to the reported bovine serum albumin (BSA) protein size and molecular weight (7.2 nm, 66.43 KDa), the molecular weight of Gi-F nanoparticle with an average 78 nm size can be calculated to be […]. The monomer amount Gi-F nanoparticle was calculated as […].

FeTCPP-LKLKLK(SA)GACNWLPLYPCPV (disulfide) [Gi-F-SA, control conjugate decorated with non-sensitive succinic anhydride (SA) moieties]
Relative GSH levels ([1]; pH=7.4, replicate #1): 0.589 | Relative GSH levels ([1]; pH=7.4, replicate #2): 0.628 | Relative GSH levels ([1]; pH=7.4, replicate #3): 0.53 | Hydrolysis of SA (%) ([2]; pH 6.5, 0 min): 0% | Hydrolysis of SA (%) ([2]; pH 6.5, 20 min): 1.1% | Hydrolysis of SA (%) ([2]; pH 6.5, 40 min): 1.9% | Hydrolysis of SA (%) ([2]; pH 6.5, 60 min): 2.1% | Hydrolysis of SA (%) ([2]; pH 6.5, 120 min): 2.1% | Hydrolysis of SA (%) ([2]; pH 6.5, 240 min): 2.3% | hydrolysis at pH 6.5 and 7.4 ([2]; pH 6.5 and 7.4, HPLC, Supplementary Fig. 11): little hydrolysis | Hydrolysis of SA (%) ([2]; pH 7.4, 0 min): 0% | Hydrolysis of SA (%) ([2]; pH 7.4, 20 min): 1% | Hydrolysis of SA (%) ([2]; pH 7.4, 40 min): 1.2% | Hydrolysis of SA (%) ([2]; pH 7.4, 60 min): 1.6% | Hydrolysis of SA (%) ([2]; pH 7.4, 120 min): 1.9% | Hydrolysis of SA (%) ([2]; pH 7.4, 240 min): 2.4% | Relative MDA levels ([3]; pH=7.4, replicate #1): 2.76 | Relative MDA levels ([3]; pH=7.4, replicate #2): 2.24 | Relative MDA levels ([3]; pH=7.4, replicate #3): 2

FeTCPP-LKLKLKGACNWLPLYPCPV (disulfide) [Gi-F]
Cell viability of HUVEC ([4]; log concentration (μM) 0, replicate 1): 101.3% | Cell viability of HUVEC ([4]; log concentration (μM) 0, replicate 2): 99.35% | Cell viability of HUVEC ([4]; log concentration (μM) 0, replicate 3): 85.17% | Cell viability of HUVEC ([4]; log concentration (μM) 0.30103, replicate 1): 83.14% | Cell viability of HUVEC ([4]; log concentration (μM) 0.30103, replicate 2): 92.08% | Cell viability of HUVEC ([4]; log concentration (μM) 0.30103, replicate 3): 87.75% | Cell viability of HUVEC ([4]; log concentration (μM) 0.60206, replicate 1): 84.4% | Cell viability of HUVEC ([4]; log concentration (μM) 0.60206, replicate 2): 84.96% | Cell viability of HUVEC ([4]; log concentration (μM) 0.60206, replicate 3): 81.47% | Cell viability of HUVEC ([4]; log concentration (μM) 0.90309, replicate 1): 84.05% | Cell viability of HUVEC ([4]; log concentration (μM) 0.90309, replicate 2): 81.61% | Cell viability of HUVEC ([4]; log concentration (μM) 0.90309, replicate 3): 70.99% | Cell viability of HUVEC ([4]; log concentration (μM) 1.20412, replicate 1): 70.71% | Cell viability of HUVEC ([4]; log concentration (μM) 1.20412, replicate 2): 64.63% | Cell viability of HUVEC ([4]; log concentration (μM) 1.20412, replicate 3): 61.91% | Cell viability of HUVEC ([4]; log concentration (μM) 1.50515, replicate 1): 57.51% | Cell viability of HUVEC ([4]; log concentration (μM) 1.50515, replicate 2): 49.41% | Cell viability of HUVEC ([4]; log concentration (μM) 1.50515, replicate 3): 55.06% | Cell viability of HUVEC ([4]; log concentration (μM) 1.80618, replicate 1): 45.98% | Cell viability of HUVEC ([4]; log concentration (μM) 1.80618, replicate 2): 47.94% | Cell viability of HUVEC ([4]; log concentration (μM) 1.80618, replicate 3): 46.54% | Cell viability of HUVEC ([4]; log concentration (μM) 2.10721, replicate 1): 37.74% | Cell viability of HUVEC ([4]; log concentration (μM) 2.10721, replicate 2): 31.25% | Cell viability of HUVEC ([4]; log concentration (μM) 2.10721, replicate 3): 33.97% | Cell viability of HUVEC ([4]; log concentration (μM) 2.40824, replicate 1): 21.61% | Cell viability of HUVEC ([4]; log concentration (μM) 2.40824, replicate 2): 25.66% | Cell viability of HUVEC ([4]; log concentration (μM) 2.40824, replicate 3): 20.7% | cytotoxicity toward normal cells compared with Gi-F-CAA ([4]; pH 7.4): obvious increased cytotoxicity | Fnorm (‰), MST original data ([5]; nanoparticle ligand concentration 3.07265e-11 (μM)): 857.598 ‰ | Fnorm (‰), MST original data ([5]; nanoparticle ligand concentration 6.14531e-11 (μM)): 848.131 ‰ | Fnorm (‰), MST original data ([5]; nanoparticle ligand concentration 1.22906e-10 (μM)): 859.494 ‰ | Fnorm (‰), MST original data ([5]; nanoparticle ligand concentration 2.45812e-10 (μM)): 850.692 ‰ | Fnorm (‰), MST original data ([5]; nanoparticle ligand concentration 4.91623e-10 (μM)): 861.283 ‰ | Fnorm (‰), MST original data ([5]; nanoparticle ligand concentration 9.8325e-10 (μM)): 853.275 ‰ | Fnorm (‰), MST original data ([5]; nanoparticle ligand concentration 1.9665e-9 (μM)): 865.165 ‰ | Fnorm (‰), MST original data ([5]; nanoparticle ligand concentration 3.933e-9 (μM)): 860.627 ‰ | Fnorm (‰), MST original data ([5]; nanoparticle ligand concentration 7.86601e-9 (μM)): 880.817 ‰ | Fnorm (‰), MST original data ([5]; nanoparticle ligand concentration 1.5732e-8 (μM)): 885.875 ‰ | Fnorm (‰), MST original data ([5]; nanoparticle ligand concentration 3.1464e-8 (μM)): 915.502 ‰ | Fnorm (‰), MST original data ([5]; nanoparticle ligand concentration 6.29279e-8 (μM)): 920.264 ‰ | Fnorm (‰), MST original data ([5]; nanoparticle ligand concentration 1.25856e-7 (μM)): 943.293 ‰ | Fnorm (‰), MST original data ([5]; nanoparticle ligand concentration 2.51712e-7 (μM)): 935.723 ‰ | Fnorm (‰), MST original data ([5]; nanoparticle ligand concentration 5.03423e-7 (μM)): 956.979 ‰ | Fnorm (‰), MST original data ([5]; nanoparticle ligand concentration 1.00685e-6 (μM)): 946.244 ‰ | increase of binding affinity to GPX4 versus Gi-F-CAA ([5]; ratio of MST Kd values): ~ 55 times

From PMC10784468 (Nature Communications, 2024)
